The structures appear in SMILES notation. Marks after values point to notes of the source that are not given here.

We go through five compounds from patent US8637664B2, “Alkyl 4- [4- (5-oxo-2,3,5, 11a-tetrahydo-5H-pyrrolo [2, 1-c] [1,4] benzodiazepine-8-yloxy)-butyrylamino]-1H-pyrrole-2-carboxylate derivatives and related compounds for the treatment of a proliferative disease” (Spirogen SARL, priority 2005, dated 2014).

In assay [1] the test system is K562 human chronic myeloid leukaemia cells. The experiment in a line: In vitro cytotoxicity, MTT assay. Particulars: K562, 1 hour drug exposure, MTT after 4 days. It counts as cell-based. Here is the method:
K562 human chronic myeloid leukaemia cells were maintained in RPM1 1640 medium supplemented with 10% fetal calf serum and 2 mM glutamine at 37° C. in a humidified atmosphere containing 5% CO2 and were incubated with a specified dose of drug for 1 hour at 37° C. in the dark. The incubation was terminated by centrifugation (5 min, 300 g) and the cells were washed once with drug-free medium. Following the appropriate drug treatment, the cells were transferred to 96-well microtiter plates (10^4 cells per well, 8 wells per sample). Plates were then kept in the dark at 37° C. in a humidified atmosphere containing 5% CO2. The assay is based on the ability of viable cells to reduce a yellow soluble tetrazolium salt, 3-(4,5-dimethylthiazol-2-yl)-2,5-diphenyl-2H-tetrazolium bromide (MTT, Aldrich-Sigma), to an insoluble purple formazan precipitate. Following incubation of the plates for 4 days (to allow control cells to increase in number by approximately 10 fold), 20 μL of MTT solution (5 mg/mL in phosphate-buffered saline) was added to each well and the plates further incubated for 5 hours. The plates were then centrifuged for 5 minutes at 300 g and the bulk of the medium pipetted from the cell pellet leaving 10-20 μL per well. DMSO (200 μL) was added to each well and the samples agitated to ensure complete mixing. The optical density was then read at a wavelength of 550 nm on a Titertek Multiscan ELISA plate reader, and a dose-response curve was constructed.
In general terms: Tetrazolium dyes change colour on reduction, which living cells bring about.

Assay [2] addresses 262 bp DNA fragment (MS2F or MS2R) of MS2 plasmid. The experiment in a line: DNase I footprinting on MS2 DNA fragment. The assay is classed as binding. Particulars: read-out: DNase IC50 (apparent binding affinity; 50% inhibition of DNase I-mediated cleavage); estimated by eye; site 5′-62CAATACACA70-3′. Here is the method: The sequence selectivity of the six PBD-pyrrole conjugates (21, 23, 25, 27, 29) was evaluated by standard DNA footprinting on a fragment of MS2 as follows, in accordance with the technique described in Martin, C., et al., (Martin, C., et al., Biochemistry, 44(11), 4135-4147 (2005))
Forward (5′-[…]-3′) or reverse (5′-[…]-3′) primer was 5′-end labelled with ^32P by T4 polynucleotide kinase. Labelling mixture contained primer (5 pmol; Sigma-Genosys), 10× kinase buffer (1 μl; Promega), (γ-^32P)-ATP (2μ of 10 μCi/μl, 6000 Ci/mmol; Perkin Elmer Life Sciences), and T4 polynucleotide kinase (10 U; Promega) in a 10 μl final volume. Labelling mix was incubated at 37° C. for 30 minutes followed by inactivation of the kinase at 70° C. for 10 minutes. A 262 bp DNA fragment (MS2F or MS2R) was amplified from the MS2 plasmid using PCR with either labelled forward or reverse primer and the unlabelled primer as required. Reactions were comprised of labelled primer mix (10 μl), 10×PCR buffer (5 μl; Sigma), dNTPs (5 μl; 2.5 mM each of A, C, G and T, Amersham Pharmacia), unlabelled primer as required ([…]), MS2 plasmid template DNA (10 ng) and Taq DNA polymerase (5 U; Sigma) in a 50 μl final volume. Radiolabelled 262-mer was purified by non-denaturing polyacrylamide gel electrophoresis, elution, filtration and EtOH precipitation and was resuspended in a solution of Tris-HCl (10 mM) pH 7.4/NaCl (10 mM) to yield an activity of 200 counts per second per 5 μl when held up, in a pipette tip, to a capped Morgan series 900 mini-monitor.
For DNase I footprinting radiolabelled 262-mer (2 μl) was incubated overnight (16-18 h) with drug solution (388 μl) or in an aqueous buffer [HEPES (20 mM) pH 7.9, NaCl (50 mM), MgCl2 (1 mM), DTT (5 mM), 10% glycerol] in control reactions. Enzymatic cleavage was initiated by addition of DNase I solution (10 μl of 0.05 U/ml; Sigma) in aqueous NaCl (200 mM), MgCl2 (20 mM) and MnCl2 (20 mM) and halted with stop solution [40 μl of NaCl (2.25 M), EDTA (150 mM) pH 8.0, 0.57 μg/μl glycogen (0.57 μg/μl; Roche), poly(dl-dC).poly(dl-dC) DNA (19.3 ng/μl; Amersham Pharmacia)]. From this mixture, digested DNA fragments were prepared for electrophoresis following the protocol of Trauger & Dervan, and were loaded on to a preheated 8% denaturing polyacrylamide gel. Electrophoresis in 1×TBE buffer was allowed to proceed for 100 min at 70 W (1600-2000 V). The gel was the fixed in acetic acid (10% v/v) and methanol (10% v/v) for 15 minutes followed by being blotted onto Whatman 3 mM paper and vacuum-dried at 80° C. for 45 minutes.
Dried gels were stored at room temperature in phosphor storage screens (Molecular Dynamics) for a minimum period of 12 h. Data were collected from exposed screens using a Molecular Dynamics 425E Phosphorlmager and transferred to ImageQuant v1.2 software (Molecular Dynamics) for analysis. Data were expressed as the differential cleavage between control and sample lanes. Peaks were integrated and differential cleavage calculated as ln(fd)−ln(fc); (fd is the fractional cleavage at any particular bond in the presence of drug and fc is the fractional cleavage of the same bond in the control). Maxam-Gilbert G+A marker lanes were prepared in the usual fashion.
The vast majority of footprint sites are common features in the binding profiles of all six conjugates, with only a small number of sites being footprinted by a subset of the family. Even more unexpectedly, no site is footprinted by only one molecule (in fact, the fewest number of conjugates that bind at any single site is four). The differential cleavage plot provides footprinting profiles at a supramaximal concentration colour-coded for each conjugate which illustrates a striking degree of overlap. Although there is no conspicuous change in footprinting patterns as the number of pyrroles units in each conjugate increases, there are changes in two other features, namely, the apparent binding affinity and the width of the footprinted site. […]

The next assay relates to calf thymus DNA (CT-DNA). The experiment in a line: DNA thermal denaturation (melting) studies. Particulars: CT-DNA 100 μM DNAp, compound 20 μM, 37 °C; for Induced ΔTm after incubation 0 hours: pH 7.00, 0 hours; for Induced ΔTm after incubation 4 hours: pH 7.00, 4 hours; for Induced ΔTm after incubation 18 hours: pH 7.00, 18 hours; for Induced ΔTm after incubation 72 hours: pH 7.00, 72 hours. The assay is classed as binding. Here is the method:
The PBD agents were subjected to DNA thermal melting (denaturation) studies (Gregson, S. J., et al., Journal of Medicinal Chemistry, 44(5), 737-748 (2001); Jones, G. B., et al., Anti-Cancer Drug Design, 5(3), 249-264 (1990); McConnaughie, A. W. and; Jenkins, T. C. Journal of Medicinal Chemistry, 38(18), 3488-3501 (1995)) using calf thymus DNA (CT-DNA, type-1, highly polymerized sodium salt; 42% G+C [Sigma]) at a fixed 100 μM (DNAp=50 μM bp) concentration, determined using an extinction coefficient of 6600 (M phosphate)^−1 cm^−1 at 260 nm (Manzini, G., et al., Nucleic Acids Research, 11(24), 8861-8876 (1983)). Solutions were prepared in pH 7.00±0.01 aqueous buffer containing 10 mM NaH2PO4/Na2HPO4 and 1 mM EDTA. Working solutions containing CT-DNA and the test compound (20 μM) were incubated at 37.0±0.1° C. for 0 to 18 hours using an external water bath. Samples were monitored at 260 nm using a Varian-Cary 400 Bio spectrophotometer fitted with a Peltier heating accessory. Heating was applied at a rate of 1° C./min in the 45 to 98° C. temperature range, with optical and temperature data sampling at 200 ms intervals. A separate experiment was carried out using buffer alone, and this baseline was subtracted from each DNA melting curve before data treatment. Optical data were imported into the Origin 5 program (MicroCal Inc., Northampton, Mass.) for analysis. DNA helix→coil transition temperatures (Tm) were determined at the midpoint of the normalized melting profiles using a published analytical procedure (Jones, G. B., et al., Anti-Cancer Drug Design, 5(3), 249-264 (1990)). Results are given in table 1 as the mean±standard deviation from at least three determinations. Ligand-induced alterations in DNA melting behaviour (ΔTm) are given by ΔTm=Tm(DNA+ligand)−Tm(DNA), where the Tm value determined for free CT-DNA is 67.82±0.06° C. (averaged from >90 runs). All PBD compounds were dissolved in HPLC-grade MeOH to give working solutions containing ≦0.6% v/v MeOH; Tm results were corrected for the effects of MeOH co-solvent by using a linear correction term.
The above method was also carried out on the compounds of example 2, with all compounds being incubated for up to 72 hours.

The test system of assay [3] is NF-Y binding at ICB2 of Topoisomerase IIα promoter. The experiment in a line: NF-Y gel shift assay (EMSA) at ICB2. Background: A gel shift assay detects complexes by their altered migration in electrophoresis.
Assay [4] relates to NF-Y binding at ICB1 of Topoisomerase IIα promoter. The assay can be described thus: NF-Y gel shift assay (EMSA) at ICB1.
Assay [5] concerns 170 bp sequence of the human Topo-IIa promoter. The experiment in a line: DNase I footprinting on Topo-IIa promoter (ICB1, ICB2 sites). It counts as binding. Conditions: for Concentration at which DNA binding is observed, ICB1: ICB1 site; for Concentration at which DNA binding is observed, ICB2: ICB2 site. Here is the method: In a similar manner to Example 4, the affinity and sequence selectivity of certain compounds of examples 1 and 2 was evaluated by standard DNA footprinting on a 170 bp sequence of the human Topo-IIa promoter, in accordance with the technique described in Martin, C., et al.
Selected results are shown in FIG. 9, wherein the concentrations of the lanes were 0, 1.6, 8, 40, 200, 1000, 5000 and 25000 nM in each case.
The footprinting results allowed the identification of compounds that could potentially disrupt transcription factor binding at the ICB1 and ICB2 sites. […] These compounds are detailed below in table 3, showing the concentrations (μM) at which the PBD-heterocycle conjugates bind at ICB1 and ICB2.

Another assay has as its system human c-myc oncogene. Particulars: read-out: IC50 to arrest PCR of the c-myc gene; cited from earlier work.
For another assay, the system named is HIV-1 LTR. Particulars: read-out: IC50 to arrest PCR of the HIV gene; cited from earlier work.

As for `COC(=O)c1cc(NC(=O)c2cc(NC(=O)c3cc(NC(=O)c4cc(NC(=O)CCCOc5cc6c(cc5OC)C(=O)N5CCC[C@H]5C=N6)cn4C)cn3C)cn2C)cn1C` [Compound 27, (11aS) Methyl 4-[(4-{[4-({4-[4-(7-Methoxy-5-oxo-2,3,5,11a-tetrahydro-5H-pyrrolo[2,1-c][1,4]benzodiazepine-8-yloxy)-butyrylamino]-1-methyl-1H-pyrrole-2-carbonyl]-amino)-1-methyl-1H-pyrrole-2-carbonyl]-amino}-1-methyl-1H-pyrrole-2-carbonyl)-amino]-1-methyl-1H-pyrrole-2-carboxylate], the IC50 (commonly the concentration needed to halve the response being measured) in assay [1] turned out to be 0.047 µM. In assay [2], the IC50 is about 0.03 µM. Besides, in the assay on calf thymus DNA (CT-DNA), the “Induced ΔTm after incubation 0 hours” value stood at 16.0 °C, the “Induced ΔTm after incubation 4 hours” value was 18.5 °C and the “Induced ΔTm after incubation 18 hours” value is 19.0^y ° C.

Regarding `COC(=O)c1cc(NC(=O)c2cc(NC(=O)c3nc(NC(=O)CCCOc4cc5c(cc4OC)C(=O)N4CCC[C@H]4C=N5)cn3C)cn2C)cn1C` [Compound 67], the “Lowest concentration at which NF-Y binding inhibition was observed” value in assay [3] was found to be 5 µM. In addition, in the assay on calf thymus DNA (CT-DNA), the “Induced ΔTm after incubation 0 hours” value was 19.1 °C, the “Induced ΔTm after incubation 4 hours” value was found to be 19.8 °C, the “Induced ΔTm after incubation 18 hours” value came to 21.1 °C and the “Induced ΔTm after incubation 72 hours” value is 21.6 °C. Moreover, in assay [4], the “Lowest concentration at which NF-Y binding inhibition was observed” value is 50 µM. Also, in assay [5], the “Concentration at which DNA binding is observed, ICB1” value (“Concentration … ICB1” below) was found to be 5 µM and the “Concentration at which DNA binding is observed, ICB2” value (“Concentration … ICB2” below) came to 1 µM.

For `COC(=O)c1cc(NC(=O)c2cc(NC(=O)c3csc(NC(=O)CCCOc4cc5c(cc4OC)C(=O)N4CCC[C@H]4C=N5)n3)cn2C)cn1C` [Compound 69], the “Lowest concentration at which NF-Y binding inhibition was observed” value in assay [3] was 10 µM. Besides, in the assay with calf thymus DNA (CT-DNA), the “Induced ΔTm after incubation 0 hours” value is 16.4 °C, the “Induced ΔTm after incubation 4 hours” value came to 17.4 °C, the “Induced ΔTm after incubation 18 hours” value came to 18.2 °C and the “Induced ΔTm after incubation 72 hours” value came out at 18.5 °C. Moreover, in assay [4], the “Lowest concentration at which NF-Y binding inhibition was observed” value is 50 µM. Moreover, in assay [5], the “Concentration … ICB1” value is 5 µM and the “Concentration … ICB2” value was 5 µM.

For `CCOC(=O)c1nc(NC(=O)c2nc(NC(=O)c3cc(NC(=O)CCCOc4cc5c(cc4OC)C(=O)N4CCC[C@H]4C=N5)cn3C)cn2C)cn1C` [Compound 91], the “Lowest concentration at which NF-Y binding inhibition was observed” value in assay [3] amounted to 50 µM. Moreover, in the assay with calf thymus DNA (CT-DNA), the “Induced ΔTm after incubation 0 hours” value came out at 16.8 °C, the “Induced ΔTm after incubation 4 hours” value is 17.6 °C, the “Induced ΔTm after incubation 18 hours” value was 18.7 °C and the “Induced ΔTm after incubation 72 hours” value was 18.8 °C. The “Lowest concentration at which NF-Y binding inhibition was observed” value in assay [4] was “did not inhibit NF-Y binding”. Moreover, in assay [5], the “Concentration … ICB1” value worked out at 5 µM and the “Concentration … ICB2” value came to 5 µM.

Consider `Cn1cc(NC(=O)c2cc(NC(=O)c3cc(NC=O)cn3C)cn2C)cc1C(=O)NCCC(=N)N` [distamycin A], for which the IC50 in the assay on human c-myc oncogene was 25 µM; in the assay on HIV-1 LTR, 50 µM.
